PMC5218480 (PLoS ONE, 2017)

Test system: MV-4-11 cells
Assay: Gene expression microarray analysis (Affymetrix PrimeView) and GSEA
Type: cell-based, human
Set-up: RFU PODN (11730768_x_at) / Fold change /veh PODN (11730768_x_at) / RFU LINC00158 (11744669_a_at) / Fold change /veh LINC00158 (11744669_a_at) / RFU DUSP10 (11751237_a_at) / Fold change /veh DUSP10 (11751237_a_at) / RFU ID3 (11757404_x_at) / Fold change /veh ID3 (11757404_x_at) / RFU PLEKHG5 (11737974_s_at) / Fold change /veh PLEKHG5 (11737974_s_at) / RFU LRRC4B (11730491_at) / Fold change /veh LRRC4B (11730491_at) / RFU GIMAP4 (11747438_a_at) / Fold change /veh GIMAP4 (11747438_a_at) / RFU KRT8 (11758183_x_at) / Fold change /veh KRT8 (11758183_x_at) / RFU CNN1 (11734310_a_at) / Fold change /veh CNN1 (11734310_a_at) / RFU VPS37D (11726825_at) / Fold change /veh VPS37D (11726825_at) / RFU C10orf10 (11716522_x_at) / Fold change /veh C10orf10 (11716522_x_at) / RFU KIR2DL2 /// KIR2DL4 /// KIR2DL5A /// KIR2DL5B /// KIR2DS1 /// KIR2DS2 /// KIR2DS3 /// KIR2DS4 /// KIR3DL3 /// KIR3DL3 /// KIR3DS1 (11738374_at) / Fold change /veh KIR2DL2 /// KIR2DL4 /// KIR2DL5A /// KIR2DL5B /// KIR2DS1 /// KIR2DS2 /// KIR2DS3 /// KIR2DS4 /// KIR3DL3 /// KIR3DL3 /// KIR3DS1 (11738374_at) / RFU C1QL1 (11718748_at) / Fold change /veh C1QL1 (11718748_at) / RFU TMPRSS4 (11747572_a_at) / Fold change /veh TMPRSS4 (11747572_a_at) / RFU HAMP (11756126_x_at) / Fold change /veh HAMP (11756126_x_at) / RFU RNFT2 (11725882_a_at) / Fold change /veh RNFT2 (11725882_a_at) / RFU NR4A2 (11747474_a_at) / Fold change /veh NR4A2 (11747474_a_at) / RFU ABCC12 (11746883_a_at) / Fold change /veh ABCC12 (11746883_a_at) / RFU TMEM136 (11760407_x_at) / Fold change /veh TMEM136 (11760407_x_at) / RFU CLDN22 /// WWC2 (11732394_at) / Fold change /veh CLDN22 /// WWC2 (11732394_at) / RFU HLA-DPB1 (11760878_x_at) / Fold change /veh HLA-DPB1 (11760878_x_at) / RFU SPINT1 (11716480_a_at) / Fold change /veh SPINT1 (11716480_a_at) / RFU GAP43 (11754022_s_at) / Fold change /veh GAP43 (11754022_s_at) / RFU A4GNT (11735810_at) / Fold change /veh A4GNT (11735810_at) / RFU PRB3 (11715151_x_at) / Fold change /veh PRB3 (11715151_x_at) / RFU TUBB4B (11761932_at) / Fold change /veh TUBB4B (11761932_at) / RFU CAPN14 (11732068_a_at) / Fold change /veh CAPN14 (11732068_a_at) / RFU TMCC2 (11721928_a_at) / Fold change /veh TMCC2 (11721928_a_at) / RFU IRGQ (11745062_a_at) / Fold change /veh IRGQ (11745062_a_at) / RFU FAM174B (11720279_a_at) / Fold change /veh FAM174B (11720279_a_at) / RFU TMPRSS4 (11748680_a_at) / Fold change /veh TMPRSS4 (11748680_a_at) / RFU FAM212B (11763350_a_at) / Fold change /veh FAM212B (11763350_a_at) / RFU PLEKHG5 (11743358_a_at) / Fold change /veh PLEKHG5 (11743358_a_at) / RFU ZSCAN30 (11745921_a_at) / Fold change /veh ZSCAN30 (11745921_a_at) / RFU CMKLR1 (11741424_a_at) / Fold change /veh CMKLR1 (11741424_a_at) / RFU LOC101060620 /// MAPK8IP1 (11723275_at) / Fold change /veh LOC101060620 /// MAPK8IP1 (11723275_at) / RFU SPTSSB (11747773_x_at) / Fold change /veh SPTSSB (11747773_x_at) / RFU PRSS12 (11739890_at) / Fold change /veh PRSS12 (11739890_at) / RFU BIN1 (11741810_x_at) / Fold change /veh BIN1 (11741810_x_at) / RFU WNT11 (11732464_a_at) / Fold change /veh WNT11 (11732464_a_at) / RFU C10orf10 (11716521_a_at) / Fold change /veh C10orf10 (11716521_a_at) / RFU C5orf56 (11738089_at) / Fold change /veh C5orf56 (11738089_at) / RFU CYB561 (11721691_x_at) / Fold change /veh CYB561 (11721691_x_at) / RFU ANKRD19P (11752326_a_at) / Fold change /veh ANKRD19P (11752326_a_at) / RFU OR2T12 /// OR2T33 /// OR2T8 (11738714_s_at) / Fold change /veh OR2T12 /// OR2T33 /// OR2T8 (11738714_s_at) / RFU VCAN (11748164_a_at) / Fold change /veh VCAN (11748164_a_at) / RFU JSRP1 (11732532_at) / Fold change /veh JSRP1 (11732532_at) / RFU KRTAP10-11 (11738290_x_at) / Fold change /veh KRTAP10-11 (11738290_x_at) / RFU MYO3A (11730013_a_at) / Fold change /veh MYO3A (11730013_a_at) / RFU EBF3 (11725865_a_at) / Fold change /veh EBF3 (11725865_a_at) / RFU CAMK2N1 (11719241_x_at) / Fold change /veh CAMK2N1 (11719241_x_at) / RFU C5orf56 (11738088_a_at) / Fold change /veh C5orf56 (11738088_a_at) / RFU OLFML3 (11715873_a_at) / Fold change /veh OLFML3 (11715873_a_at) / RFU LOC100653217 /// NTM (11731650_a_at) / Fold change /veh LOC100653217 /// NTM (11731650_a_at) / RFU MAPK11 (11762145_a_at) / Fold change /veh MAPK11 (11762145_a_at) / RFU FIZ1 (11724087_x_at) / Fold change /veh FIZ1 (11724087_x_at) / RFU OASL (11726364_x_at) / Fold change /veh OASL (11726364_x_at) / RFU SOX15 (11748057_x_at) / Fold change /veh SOX15 (11748057_x_at) / RFU CD79A (11719716_a_at) / Fold change /veh CD79A (11719716_a_at) / RFU HIST1H1D (11736915_at) / Fold change /veh HIST1H1D (11736915_at) / RFU CASKIN2 (11723855_a_at) / Fold change /veh CASKIN2 (11723855_a_at) / RFU LOC730098 (11760151_x_at) / Fold change /veh LOC730098 (11760151_x_at) / RFU OR4N2 (11742367_at) / Fold change /veh OR4N2 (11742367_at) / RFU PRRT2 (11749266_a_at) / Fold change /veh PRRT2 (11749266_a_at) / RFU SNX32 (11753110_a_at) / Fold change /veh SNX32 (11753110_a_at) / RFU CDHR5 (11726645_a_at) / Fold change /veh CDHR5 (11726645_a_at) / RFU RCAN1 (11760418_a_at) / Fold change /veh RCAN1 (11760418_a_at) / RFU FAM167A (11723789_a_at) / Fold change /veh FAM167A (11723789_a_at) / RFU FAM26E (11764081_at) / Fold change /veh FAM26E (11764081_at) / RFU ISYNA1 (11749810_s_at) / Fold change /veh ISYNA1 (11749810_s_at) / RFU ACY1 (11761880_at) / Fold change /veh ACY1 (11761880_at) / RFU 11764098_at / Fold change /veh 11764098_at / RFU SAMD14 (11745864_x_at) / Fold change /veh SAMD14 (11745864_x_at) / RFU NPB (11741838_a_at) / Fold change /veh NPB (11741838_a_at) / RFU TMPRSS6 (11731388_a_at) / Fold change /veh TMPRSS6 (11731388_a_at) / RFU KRTAP10-2 (11738614_at) / Fold change /veh KRTAP10-2 (11738614_at) / RFU ARHGAP8 /// PRR5-ARHGAP8 (11727945_x_at) / Fold change /veh ARHGAP8 /// PRR5-ARHGAP8 (11727945_x_at) / RFU KRTAP5-7 /// NADSYN1 (11734609_at) / Fold change /veh KRTAP5-7 /// NADSYN1 (11734609_at) / RFU RASL12 (11751679_a_at) / Fold change /veh RASL12 (11751679_a_at) / RFU CDKN2B (11736163_a_at) / Fold change /veh CDKN2B (11736163_a_at) / RFU PRF1 (11729649_at) / Fold change /veh PRF1 (11729649_at) / RFU, ZNF638 /// ZNF638-IT1 / Fold change vs veh, ZNF638 /// ZNF638-IT1 / RFU, PANK3 / Fold change vs veh, PANK3 / RFU, SH3YL1 / Fold change vs veh, SH3YL1 / RFU, ZEB2 / Fold change vs veh, ZEB2 / RFU, NRIP1 / Fold change vs veh, NRIP1 / RFU, PTTG1IP / Fold change vs veh, PTTG1IP / RFU, CAPN2 / Fold change vs veh, CAPN2 / RFU, MED14 / Fold change vs veh, MED14 / RFU, SNORA58 / Fold change vs veh, SNORA58 / RFU, C1orf63 / Fold change vs veh, C1orf63 / RFU, LRRFIP1 / Fold change vs veh, LRRFIP1 / RFU, NDUFAF7 / Fold change vs veh, NDUFAF7 / RFU, SLC12A2 / Fold change vs veh, SLC12A2 / RFU, IBTK / Fold change vs veh, IBTK / RFU, ESF1 / Fold change vs veh, ESF1 / Fold change vs veh, TMEM50B / RFU, TAOK1 / Fold change vs veh, TAOK1 / RFU, ACBD3 / Fold change vs veh, ACBD3 / RFU, TMA16 / Fold change vs veh, TMA16 / RFU, RWDD3 / Fold change vs veh, RWDD3 / RFU, BCAT1 / Fold change vs veh, BCAT1 / RFU, EDEM3 / Fold change vs veh, EDEM3 / RFU, TMEM33 / Fold change vs veh, TMEM33 / RFU, WDR75 / Fold change vs veh, WDR75 / RFU, AHCTF1 / Fold change vs veh, AHCTF1 / RFU, TFRC / Fold change vs veh, TFRC / RFU, ZDHHC17 / Fold change vs veh, ZDHHC17 / RFU, NOM1 / Fold change vs veh, NOM1 / RFU, ARL8B / Fold change vs veh, ARL8B / RFU, ZBTB11 / Fold change vs veh, ZBTB11 / RFU, TAMM41 / Fold change vs veh, TAMM41 / RFU, KIAA1704 /// LOC100996395 / Fold change vs veh, KIAA1704 /// LOC100996395 / RFU, ING1 / Fold change vs veh, ING1 / RFU, TRMT61B / Fold change vs veh, TRMT61B / RFU, FUBP3 / Fold change vs veh, FUBP3 / RFU, TP53 / Fold change vs veh, TP53 / RFU, TNKS2 / Fold change vs veh, TNKS2 / RFU, ZFP14 / Fold change vs veh, ZFP14 / RFU, ACTR2 / Fold change vs veh, ACTR2 / RFU, PPP3R1 / Fold change vs veh, PPP3R1 / RFU, PIK3R1 / Fold change vs veh, PIK3R1 / RFU, HNRNPA1 / Fold change vs veh, HNRNPA1 / RFU, RNF170 / Fold change vs veh, RNF170 / RFU, ZNF28 / Fold change vs veh, ZNF28 / RFU, RNGTT / Fold change vs veh, RNGTT / RFU, OGT / Fold change vs veh, OGT / RFU, BRD1 / Fold change vs veh, BRD1 / RFU, MARS / Fold change vs veh, MARS / RFU, ZNF655 / Fold change vs veh, ZNF655 / RFU, FAHD1 / Fold change vs veh, FAHD1 / RFU, BDP1 / Fold change vs veh, BDP1 / RFU, LRRCC1 / Fold change vs veh, LRRCC1 / RFU, ARID1A / Fold change vs veh, ARID1A / RFU, ZNF146 / Fold change vs veh, ZNF146 / RFU, ZNF330 / Fold change vs veh, ZNF330 / RFU, GPN3 / Fold change vs veh, GPN3 / RFU, C9orf123 / Fold change vs veh, C9orf123 / RFU, N4BP2L2 / Fold change vs veh, N4BP2L2 / RFU, ARFIP1 / Fold change vs veh, ARFIP1 / RFU, FAM179B / Fold change vs veh, FAM179B / RFU, BCL10 / Fold change vs veh, BCL10 / RFU, UHRF1BP1L / Fold change vs veh, UHRF1BP1L / RFU, BET1 / Fold change vs veh, BET1 / RFU, CNOT2 / Fold change vs veh, CNOT2 / RFU, ZNF268 / Fold change vs veh, ZNF268 / Fold change vs veh, ZNF507 / RFU, DGCR2 / Fold change vs veh, DGCR2 / RFU, WDSUB1 / Fold change vs veh, WDSUB1 / Fold change vs veh, HSP90B1 /// MIR3652 / RFU, ADSS / Fold change vs veh, ADSS / RFU, GK / Fold change vs veh, GK / RFU, ZNF148 / Fold change vs veh, ZNF148 / RFU, TAF9 / Fold change vs veh, TAF9 / RFU, SLC1A5 / Fold change vs veh, SLC1A5 / RFU, SLMO2 / Fold change vs veh, SLMO2 / RFU, ABCC4 / Fold change vs veh, ABCC4 / RFU, LOC101060439 /// RAP1B / Fold change vs veh, LOC101060439 /// RAP1B / RFU, RFX7 / Fold change vs veh, RFX7 / RFU, GTPBP10 / Fold change vs veh, GTPBP10 / RFU, CNEP1R1 / Fold change vs veh, CNEP1R1 / RFU, BIVM-ERCC5 /// ERCC5 / Fold change vs veh, BIVM-ERCC5 /// ERCC5 / RFU, ILF3 / Fold change vs veh, ILF3 / RFU 11762660_at / Fold change /veh 11762660_at / RFU VCAN (11757783_s_at) / Fold change /veh VCAN (11757783_s_at) / RFU DDX43 (11728927_at) / Fold change /veh DDX43 (11728927_at) / RFU KRT8 (11758188_x_at) / Fold change /veh KRT8 (11758188_x_at) / RFU NKD1 (11759106_at) / Fold change /veh NKD1 (11759106_at) / RFU SRD5A1 (11742802_a_at) / Fold change /veh SRD5A1 (11742802_a_at) / RFU TPSAB1 /// TPSB2 (11721975_s_at) / Fold change /veh TPSAB1 /// TPSB2 (11721975_s_at) / RFU GSTM3 (11746129_a_at) / Fold change /veh GSTM3 (11746129_a_at) / RFU IL23R (11737362_x_at) / Fold change /veh IL23R (11737362_x_at) / RFU TMEM51 (11727254_a_at) / Fold change /veh TMEM51 (11727254_a_at) / RFU PIWIL2 (11732686_x_at) / Fold change /veh PIWIL2 (11732686_x_at) / RFU ORM1 (11744905_x_at) / Fold change /veh ORM1 (11744905_x_at) / RFU CCDC152 (11743942_at) / Fold change /veh CCDC152 (11743942_at) / RFU ECM1 (11717891_a_at) / Fold change /veh ECM1 (11717891_a_at) / RFU IL23R (11748794_a_at) / Fold change /veh IL23R (11748794_a_at) / RFU TNFAIP8L3 (11732012_x_at) / Fold change /veh TNFAIP8L3 (11732012_x_at) / RFU MBOAT4 (11741988_at) / Fold change /veh MBOAT4 (11741988_at) / RFU 11764193_at / Fold change /veh 11764193_at / RFU TMEM53 (11763286_at) / Fold change /veh TMEM53 (11763286_at) / RFU MAGEB2 (11727129_at) / Fold change /veh MAGEB2 (11727129_at) / RFU TMEM200A (11744735_a_at) / Fold change /veh TMEM200A (11744735_a_at) / RFU CCDC152 (11751479_a_at) / Fold change /veh CCDC152 (11751479_a_at) / RFU FAM211A (11726209_a_at) / Fold change /veh FAM211A (11726209_a_at) / RFU RGS16 (11746705_a_at) / Fold change /veh RGS16 (11746705_a_at) / RFU VCAN (11755009_s_at) / Fold change /veh VCAN (11755009_s_at) / RFU RHOB (11743442_s_at) / Fold change /veh RHOB (11743442_s_at) / RFU RGS16 (11720943_a_at) / Fold change /veh RGS16 (11720943_a_at) / RFU RGS16 (11720944_at) / Fold change /veh RGS16 (11720944_at) / RFU, VPS4B / Fold change vs veh, VPS4B / RFU, CREB1 / Fold change vs veh, CREB1 / RFU, DNAJC13 / Fold change vs veh, DNAJC13 / RFU, GNAQ / Fold change vs veh, GNAQ / RFU, CDK5R1 / Fold change vs veh, CDK5R1 / RFU, ZRANB3 / Fold change vs veh, ZRANB3 / RFU, CUL4A / Fold change vs veh, CUL4A / RFU, CCNY / Fold change vs veh, CCNY / RFU, UFL1 / Fold change vs veh, UFL1 / RFU, COG3 / Fold change vs veh, COG3 / RFU, DIAPH2 / Fold change vs veh, DIAPH2 / RFU, SKA2 / Fold change vs veh, SKA2 / RFU, AFF3 / Fold change vs veh, AFF3 / RFU, LMF1 / Fold change vs veh, LMF1 / RFU, IPO11 / Fold change vs veh, IPO11 / RFU, DFFB / Fold change vs veh, DFFB / RFU, FOXP1 / Fold change vs veh, FOXP1 / RFU, CARD8 / Fold change vs veh, CARD8 / RFU, STRN3 / Fold change vs veh, STRN3 / RFU, ADK / Fold change vs veh, ADK / RFU, RASSF2 / Fold change vs veh, RASSF2 / RFU, WIPF1 / Fold change vs veh, WIPF1 / RFU, LARP1B / Fold change vs veh, LARP1B / RFU, RASA1 / Fold change vs veh, RASA1 / RFU, RB1 / Fold change vs veh, RB1 / RFU, PPFIA1 / Fold change vs veh, PPFIA1 / RFU, MAT2A / Fold change vs veh, MAT2A / RFU, CCT5 / Fold change vs veh, CCT5 / RFU, WDR92 / Fold change vs veh, WDR92 / RFU, CUX1 / Fold change vs veh, CUX1 / RFU, TTC7A / Fold change vs veh, TTC7A / RFU, TMEM135 / Fold change vs veh, TMEM135 / RFU, DEPTOR / Fold change vs veh, DEPTOR / RFU, CPM / Fold change vs veh, CPM / RFU, DNAJB6 / Fold change vs veh, DNAJB6 / RFU, CACNA2D3 / Fold change vs veh, CACNA2D3 / RFU, DTX4 / Fold change vs veh, DTX4 / RFU, TFCP2 / Fold change vs veh, TFCP2 / RFU, GMCL1 /// GMCL1P1 / Fold change vs veh, GMCL1 /// GMCL1P1 / RFU, AEBP2 / Fold change vs veh, AEBP2 / RFU, SNHG1 /// SNORD22 /// SNORD25 /// SNORD26 /// SNORD27 /// SNORD28 /// SNORD29 /// SNORD31 / Fold change vs veh, SNHG1 /// SNORD22 /// SNORD25 /// SNORD26 /// SNORD27 /// SNORD28 /// SNORD29 /// SNORD31 / Fold change (Aza/veh), C12orf56 (ProbeSet 11735607_a_at) / Fold change (ACY-1035/veh), C12orf56 (ProbeSet 11735607_a_at) / Fold change (Aza/veh), FGFR1OP (ProbeSet 11751329_s_at) / Fold change (ACY-1035/veh), FGFR1OP (ProbeSet 11751329_s_at) / Fold change (Aza/veh), VPS36 (ProbeSet 11739960_a_at) / Fold change (ACY-1035/veh), VPS36 (ProbeSet 11739960_a_at) / RFU SYPL1 (11715823_x_at) / Fold change /veh SYPL1 (11715823_x_at) / RFU IGFBP7 (11715501_s_at) / Fold change /veh IGFBP7 (11715501_s_at) / RFU REEP3 (11722064_at) / Fold change /veh REEP3 (11722064_at) / RFU IGLL1 (11728026_x_at) / Fold change /veh IGLL1 (11728026_x_at): dose or concentration left out as unconfirmed
Settings: ProbeSet 11756954_s_at; LIST B

SMILES: Nc1ccc(-c2cccs2)cc1NC(=O)c1ccc2c(c1)cc(C1CC1)n2CCN1CCOCC1 [ACY-1035]
- Fold change vs veh, ZEB2: 0.85
